Measurements published in ChEMBL document CHEMBL1201862, “PubChem BioAssay data set” (2004).
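Method: 48-hour compound exposure of cells in 96-well plates, five concentrations, linear interpolation of endpoints. GI50 = concentration required for 50% inhibition of growth.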 The source made the active and inactive calls. Cut-off read from the data, not from the text of the source: active = GI50 up to about 1.1 µM and inactive = higher.

How the values were obtained:
Experiment in all cases: DTP human tumour cell line panel, 48 h
ACHN = system: ACHN
CAKI-1 = system: CAKI-1
COLO 205 = system: COLO 205
EKVX = system: EKVX
IGROV-1 = system: IGROV-1
KM12 = system: KM12
MOLT-4 = system: MOLT-4
OVCAR-4 = system: OVCAR-4
OVCAR-5 = system: OVCAR-5
OVCAR-8 = system: OVCAR-8
RPMI-8226 = system: RPMI-8226
SF-268 = system: SF-268
SF-295 = system: SF-295
SK-MEL-5 = system: SK-MEL-5
SNB-19 = system: SNB-19
SW-620 = system: SW-620
UACC-257 = system: UACC-257
UACC-62 = system: UACC-62
HCT-116 = system: HCT-116
HOP-92 = system: HOP-92

| Structure (SMILES) | GI50 (ACHN) | GI50 (CAKI-1) | GI50 (COLO 205) | GI50 (EKVX) | GI50 (IGROV-1) | GI50 (KM12) | GI50 (MOLT-4) | GI50 (OVCAR-4) | GI50 (OVCAR-5) | GI50 (OVCAR-8) | GI50 (RPMI-8226) | GI50 (SF-268) | GI50 (SF-295) | GI50 (SK-MEL-5) | GI50 (SNB-19) | GI50 (SW-620) | GI50 (UACC-257) | GI50 (UACC-62) | GI50 (HCT-116) | GI50 (HOP-92) |
| --- | --- | --- | --- | --- | --- | --- | --- | --- | --- | --- | --- | --- | --- | --- | --- | --- | --- | --- | --- | --- |
| Cc1cc(N(CCC#N)CCC#N)ccc1/N=N/c1cc(Cl)ccc1Cl | 12.8 µM (inactive) | 3.5 µM (inactive) | 2.04 µM (inactive) | 13.6 µM (inactive) | 15.1 µM (inactive) | 15.2 µM (inactive) | 5.13 µM (inactive) | 3.07 µM (inactive) | 14.4 µM (inactive) | 7.74 µM (inactive) | 5.35 µM (inactive) | 15.6 µM (inactive) | 19.6 µM (inactive) | 16.4 µM (inactive) | 17.5 µM (inactive) | 2.36 µM (inactive) | 10.7 µM (inactive) | 10.1 µM (inactive) |  |  |
| CC(C)(O)/C=C/C(=O)[C@](C)(O)[C@H]1[C@H](O)C[C@@]2(C)[C@@H]3CC=C4[C@@H](C[C@H](O)C(=O)C4(C)C)[C@]3(C)C(=O)C[C@]12C [CUCURBITACIN D] |  | 0.116 µM (active) | 0.181 µM (active) | 0.375 µM (active) | 0.376 µM (active) | 0.624 µM (active) | 0.953 µM (active) |  | 1.04 µM (active) | 0.65 µM (active) | 0.0228 µM (active) | 0.104 µM (active) | 0.344 µM (active) |  | 0.249 µM (active) | 0.0914 µM (active) | 0.0968 µM (active) | 0.0438 µM (active) | 0.112 µM (active) | 0.195 µM (active) |
| C[C@]12CCC(=O)C=C1CC[C@@H]1C2CC[C@]2(C)NC(=O)C(C#N)CC12 (stereo not given in full) | > 100 µM (inactive) | > 100 µM (inactive) |  |  | > 100 µM (inactive) | > 10 µM (inactive) | > 100 µM (inactive) | > 100 µM (inactive) | > 100 µM (inactive) | > 100 µM (inactive) | > 100 µM (inactive) |  | > 100 µM (inactive) | > 100 µM (inactive) |  | > 100 µM (inactive) | > 100 µM (inactive) | > 100 µM (inactive) | > 100 µM (inactive) |  |
| Cc1nc2ccc(C(F)(F)F)cc2nc1Nc1ccc(Cl)c(Cl)c1 | 11.3 µM (inactive) |  | 3.94 µM (inactive) | > 10 µM (inactive) |  |  | 7 µM (inactive) |  | 15.4 µM (inactive) | 12.8 µM (inactive) | 8.17 µM (inactive) | 13.8 µM (inactive) | 3.4 µM (inactive) |  | 14.1 µM (inactive) | 12.7 µM (inactive) | 12.8 µM (inactive) | 12.9 µM (inactive) | 10.5 µM (inactive) | 3.27 µM (inactive) |
| CN[C@@H](C)[C@@H](NC)c1ccccc1 | > 100 µM (inactive) | > 100 µM (inactive) | > 100 µM (inactive) | > 100 µM (inactive) | > 100 µM (inactive) | > 100 µM (inactive) | > 100 µM (inactive) |  |  | > 100 µM (inactive) | > 100 µM (inactive) |  | > 100 µM (inactive) | > 100 µM (inactive) |  | > 100 µM (inactive) | > 100 µM (inactive) | > 100 µM (inactive) | > 100 µM (inactive) | > 100 µM (inactive) |
| CN(C)c1ccc(/C=C/c2ccnc3ccc4ccccc4c23)cc1 | 22.8 µM (inactive) | 38.4 µM (inactive) | 53.1 µM (inactive) |  | 12.7 µM (inactive) | 33.3 µM (inactive) | > 100 µM (inactive) |  |  | 33.1 µM (inactive) | 79.4 µM (inactive) | 39.7 µM (inactive) |  | 71 µM (inactive) | 33.9 µM (inactive) | 47 µM (inactive) | 89.5 µM (inactive) | 53.1 µM (inactive) | 36.5 µM (inactive) | 73.1 µM (inactive) |
| COc1cc([C@@H]2c3cc4c(cc3[C@@H](Nc3ccc(Cl)cc3C(=O)c3ccccc3Cl)[C@H]3COC(=O)[C@H]23)OCO4)cc(OC)c1OC | 0.125 µM (active) | 0.152 µM (active) | 0.267 µM (active) | 57.9 µM (inactive) | 0.261 µM (active) | 0.091 µM (active) | 0.142 µM (active) | > 45.8 µM (inactive) |  | 0.152 µM (active) | 0.173 µM (active) | 0.189 µM (active) | 0.121 µM (active) | 0.102 µM (active) | 0.174 µM (active) | 0.122 µM (active) | 0.184 µM (active) | 0.118 µM (active) | 0.0738 µM (active) |  |
| NC(=O)c1ccccc1NC(=O)C(=O)Nc1n[nH]c(N)n1 | > 100 µM (inactive) | > 100 µM (inactive) | > 100 µM (inactive) | > 100 µM (inactive) | > 100 µM (inactive) | > 100 µM (inactive) | > 100 µM (inactive) | > 100 µM (inactive) | > 100 µM (inactive) | > 100 µM (inactive) | > 100 µM (inactive) |  | > 100 µM (inactive) | > 100 µM (inactive) | > 100 µM (inactive) | > 100 µM (inactive) | > 100 µM (inactive) | > 100 µM (inactive) | > 100 µM (inactive) |  |
| CC1=CCC2CC1C(C(=O)c1c[nH]c3ccccc13)=NC2(C)C (stereo not given) | 73.6 µM (inactive) | > 100 µM (inactive) | 52.2 µM (inactive) | 33.3 µM (inactive) | > 100 µM (inactive) | 52.4 µM (inactive) | 22.9 µM (inactive) | 40.3 µM (inactive) | > 100 µM (inactive) | 56.5 µM (inactive) | 25.1 µM (inactive) | > 100 µM (inactive) |  | 37.6 µM (inactive) | > 100 µM (inactive) | 76 µM (inactive) | 27.4 µM (inactive) | 25.2 µM (inactive) | 50.4 µM (inactive) |  |
| CC(=O)Nc1cccc2[nH]c3ccccc3c(=O)c12 | 17.4 µM (inactive) | 12.2 µM (inactive) | 16.3 µM (inactive) | 25.1 µM (inactive) | 26.4 µM (inactive) | 17.7 µM (inactive) | 17.1 µM (inactive) | 22.8 µM (inactive) | 20.6 µM (inactive) | 16.4 µM (inactive) | 14.7 µM (inactive) | 26.7 µM (inactive) | 19.5 µM (inactive) | 15.3 µM (inactive) | 23.2 µM (inactive) | 21.4 µM (inactive) | 25.2 µM (inactive) | 13.8 µM (inactive) | 11.5 µM (inactive) |  |
| O=c1cnn(C/C=C\CO)c(=O)[nH]1 | > 100 µM (inactive) | > 100 µM (inactive) | > 100 µM (inactive) | > 100 µM (inactive) | > 100 µM (inactive) | > 100 µM (inactive) |  |  | > 100 µM (inactive) | > 100 µM (inactive) | > 100 µM (inactive) | > 100 µM (inactive) |  | > 100 µM (inactive) | > 100 µM (inactive) | > 100 µM (inactive) | > 100 µM (inactive) |  |  | > 100 µM (inactive) |
| Cc1ccc2oc(=O)c(-c3ccccc3)nc2c1 | 27.9 µM (inactive) | 28.9 µM (inactive) | 24.5 µM (inactive) | 39.5 µM (inactive) |  | 19.6 µM (inactive) | 10.7 µM (inactive) | 23.8 µM (inactive) | 39.4 µM (inactive) | 36.4 µM (inactive) | 31.5 µM (inactive) | 25.2 µM (inactive) | 40.5 µM (inactive) | 30.8 µM (inactive) | 38.9 µM (inactive) | 22 µM (inactive) | 37.5 µM (inactive) |  | 20.6 µM (inactive) |  |
| COc1ccc(CCn2ccc(C)n2)c(OC)c1 | > 100 µM (inactive) | > 100 µM (inactive) | > 100 µM (inactive) | 47.2 µM (inactive) | > 100 µM (inactive) | > 100 µM (inactive) | > 100 µM (inactive) | > 100 µM (inactive) | > 100 µM (inactive) | > 100 µM (inactive) |  | > 100 µM (inactive) | > 100 µM (inactive) | > 100 µM (inactive) | > 100 µM (inactive) | > 100 µM (inactive) | > 100 µM (inactive) | 90.8 µM (inactive) | > 100 µM (inactive) |  |
| COc1ccc2c(c1)O[C@H]1c3ccc(O)cc3OC[C@@H]21 | 27.2 µM (inactive) | 24.1 µM (inactive) | 24.1 µM (inactive) | 34 µM (inactive) | 17.5 µM (inactive) |  | 19.8 µM (inactive) | 34.6 µM (inactive) | 48.6 µM (inactive) | 36 µM (inactive) | 25.7 µM (inactive) | 28.1 µM (inactive) | 35.2 µM (inactive) | 17.3 µM (inactive) | 68.1 µM (inactive) | 33 µM (inactive) | 21.8 µM (inactive) | 14.3 µM (inactive) | 27.6 µM (inactive) |  |
| CCOC(=O)N/N=C(/N)Cc1ccccc1 | > 100 µM (inactive) | > 100 µM (inactive) | > 100 µM (inactive) | > 100 µM (inactive) | > 100 µM (inactive) | > 100 µM (inactive) | > 100 µM (inactive) |  | > 100 µM (inactive) | > 100 µM (inactive) |  | > 100 µM (inactive) | > 100 µM (inactive) | > 100 µM (inactive) | > 100 µM (inactive) | > 100 µM (inactive) | > 100 µM (inactive) | > 100 µM (inactive) | > 100 µM (inactive) | > 100 µM (inactive) |
| CC1(C)C2CCC1(C)[C@H](O)[C@H]2Nc1cc(C(F)(F)F)cc(C(F)(F)F)c1 (stereo not given in full) | > 100 µM (inactive) | 3.76 µM (inactive) | 1.79 µM (inactive) | 3.83 µM (inactive) | 4.74 µM (inactive) | 2.88 µM (inactive) | 2.19 µM (inactive) | 5.12 µM (inactive) | 7.41 µM (inactive) | 3.21 µM (inactive) | 3.01 µM (inactive) | 3.14 µM (inactive) | 2.37 µM (inactive) | 5.38 µM (inactive) | 4.48 µM (inactive) | 3.36 µM (inactive) | 3.78 µM (inactive) | > 100 µM (inactive) | 2.72 µM (inactive) |  |
